Legend:
Type in all cases: in vivo
[1] = system: barnyardgrass (Echinochloa crusgalli, ECHCG); experiment: Pre-emerge greenhouse herbicide test, phytotoxicity rating; settings: 14 days after application, rating scale 0-100
Outline: (§1)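 Seeds sown in sandy loam mix one day before track-sprayer application of compounds in acetone at 125–1000 g ai/ha (187 l/ha), then surface-watered to incorporate and bottom-watered. Visual rating 14 days after application on a 0–100 scale (0 = no damage, 100 = all plants dead).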

[2] = system: sicklepod (Cassia obtusifolia, CASOB); experiment: as above; settings: 14 days after application, rating scale 0-100
Outline: as §1

[3] = system: ivyleaf morningglory (Ipomoea hederacea, IPOHE); experiment: as above; settings: 14 days after application, rating scale 0-100
Outline: as §1

[4] = system: redroot pigweed (Amaranthus retroflexus, AMARE); experiment: as above; settings: 14 days after application, rating scale 0-100
Outline: as §1

[5] = system: large crabgrass (Digitaria sanguinalis, DIGSA); experiment: as above; settings: 14 days after application, rating scale 0-100
Outline: as §1

[6] = system: lambsquarters (Chenopodium album, CHEAL); experiment: as above; settings: 14 days after application, rating scale 0-100
Outline: as §1

[7] = system: Johnsongrass (Sorghum halepense, SORHA); experiment: as above; settings: 14 days after application, rating scale 0-100
Outline: as §1

[8] = system: green foxtail (Setaria viridis, SETVI); experiment: as above; settings: 14 days after application, rating scale 0-100
Outline: as §1

[9] = system: velvetleaf (Abutilon theophrasti, ABUTH); experiment: as above; settings: 14 days after application, rating scale 0-100
Outline: as §1

[10] = system: common ragweed (Ambrosia artemisiifolia L., AMBEL); experiment: as above; settings: 14 days after application, rating scale 0-100
Outline: as §1

[11] = system: soybean (Glycine max L., var. Pella 86, SOY); experiment: Post-emerge greenhouse test, crop damage rating; parameters: key to crop damage rating SOY: 0-100 scale: 0 = no damage, 100 = complete death of all plants; settings: 14 days after application; for crop damage rating SOY: scale 0-100
Outline: (§2)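 Compounds in acetone with 0.25% v/v non-ionic surfactant were track-sprayed at 187 l/ha over plants at the 2-3 leaf stage, at 63 to 1000 g ai/ha. Pots were bottom-watered. Injury was scored visually 14 days later on a 0-100 scale, where 0 is no damage and 100 is complete plant death.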

[12] = system: field corn (Zea mays L., var. Dekalb 535, CORN); experiment: Post-emerge greenhouse test, crop damage rating; settings: 14 days after application; for crop damage rating CORN: scale 0-100
Outline: as §2

[13] = system: upland rice (Oryza sp., var.Tebonnet, RICE); experiment: Post-emerge greenhouse test, crop damage rating; settings: 14 days after application; for crop damage rating RICE: scale 0-100
Outline: as §2

[14] = system: barnyardgrass (Echinochloa crusgalli, ECHCG); experiment: Post-emerge greenhouse herbicide test, phytotoxicity rating; settings: 14 days after application; for phytotoxicity rating ECHCG: scale 0-100
Outline: as §2

[15] = system: ivyleaf morningglory (Ipomoea hederacea, IPOHE); experiment: as above; settings: 14 days after application; for phytotoxicity rating IPOHE: scale 0-100
Outline: as §2

[16] = system: redroot pigweed (Amaranthus retroflexus, AMARE); experiment: as above; settings: 14 days after application; for phytotoxicity rating AMARE: scale 0-100
Outline: as §2

[17] = system: large crabgrass (Digitaria sanguinalis, DIGSA); experiment: as above; settings: 14 days after application; for phytotoxicity rating DIGSA: scale 0-100
Outline: as §2

[18] = system: lambsquarters (Chenopodium album, CHEAL); experiment: as above; settings: 14 days after application; for phytotoxicity rating CHEAL: scale 0-100
Outline: as §2

[19] = system: Johnsongrass (Sorghum halepense, SORHA); experiment: as above; settings: 14 days after application; for phytotoxicity rating SORHA: scale 0-100
Outline: as §2

[20] = system: green foxtail (Setaria viridis, SETVI); experiment: as above; settings: 14 days after application; for phytotoxicity rating SETVI: scale 0-100
Outline: as §2

[21] = system: velvetleaf (Abutilon theophrasti, ABUTH); experiment: as above; settings: 14 days after application; for phytotoxicity rating ABUTH: scale 0-100
Outline: as §2

[22] = system: field corn (Zea mays L., var. Dekalb 535, CORN); experiment: Pre-emerge greenhouse test, crop damage rating; settings: 14 days after application, rating scale 0-100
Outline: as §1

[23] = system: upland rice (Oryza sp., var.Tebonnet, RICE); experiment: Pre-emerge greenhouse test, crop damage rating; settings: 14 days after application, rating scale 0-100
Outline: as §1

[24] = system: soybean (Glycine max L., var. Pella 86, SOY); experiment: Pre-emerge greenhouse test, crop damage rating; parameters: key to SOY crop damage rating: 0 = no damage, 100 = complete death of all plants; settings: 14 days after application, rating scale 0-100
Outline: as §1

[25] = system: common ragweed (Ambrosia artemisiifolia L., AMBEL); experiment: Post-emerge greenhouse herbicide test, phytotoxicity rating; settings: 14 days after application; for phytotoxicity rating AMBEL: scale 0-100
Outline: as §2

O=c1n(-c2cc(Oc3ncc([N+](=O)[O-])s3)c(Cl)cc2F)c(=S)n2n1CCCC2 [Compound 8-36]
50: SORHA phytotoxicity rating ([7]; Rate 250 g al/ha) | phytotoxicity rating ECHCG ([14]; rate 63 g ai/ha)
70: ECHCG phytotoxicity rating ([1]; Rate 250 g al/ha) | CASOB phytotoxicity rating ([2]; Rate 250 g al/ha) | IPOHE phytotoxicity rating ([3]; Rate 250 g al/ha) | DIGSA phytotoxicity rating ([5]; Rate 125 g al/ha) | RICE crop damage rating ([23]; Rate 250 g al/ha)
100: AMARE phytotoxicity rating ([4]; Rate 125 g al/ha) | AMARE phytotoxicity rating ([4]; Rate 250 g al/ha) | CHEAL phytotoxicity rating ([6]; Rate 125 g al/ha) | CHEAL phytotoxicity rating ([6]; Rate 250 g al/ha) | ABUTH phytotoxicity rating ([9]; Rate 125 g al/ha) | ABUTH phytotoxicity rating ([9]; Rate 250 g al/ha) | AMBEL phytotoxicity rating ([10]; Rate 250 g al/ha) | phytotoxicity rating IPOHE ([15]; rate 63 g ai/ha) | phytotoxicity rating AMARE ([16]; rate 63 g ai/ha) | phytotoxicity rating AMARE ([16]; rate 250 g ai/ha) | phytotoxicity rating ABUTH ([21]; rate 63 g ai/ha) | phytotoxicity rating ABUTH ([21]; rate 250 g ai/ha) | SOY crop damage rating ([24]; Rate 250 g al/ha)
99: SETVI phytotoxicity rating ([8]; Rate 250 g al/ha) | phytotoxicity rating CHEAL ([18]; rate 250 g ai/ha)
0: ECHCG phytotoxicity rating ([1]; Rate 125 g al/ha) | phytotoxicity rating SETVI ([20]; rate 63 g ai/ha) | CORN crop damage rating ([22]; Rate 125 g al/ha) | SOY crop damage rating ([24]; Rate 125 g al/ha)
60: phytotoxicity rating DIGSA ([17]; rate 250 g ai/ha)
90: CASOB phytotoxicity rating ([2]; Rate 125 g al/ha) | IPOHE phytotoxicity rating ([3]; Rate 125 g al/ha) | AMBEL phytotoxicity rating ([10]; Rate 125 g al/ha) | crop damage rating SOY ([11]; rate 250 g ai/ha) | phytotoxicity rating SORHA ([19]; rate 250 g ai/ha)
20: SORHA phytotoxicity rating ([7]; Rate 125 g al/ha) | CORN crop damage rating ([22]; Rate 250 g al/ha) | phytotoxicity rating AMBEL ([25]; rate 63 g ai/ha) | phytotoxicity rating AMBEL ([25]; rate 250 g ai/ha)
10: crop damage rating CORN ([12]; rate 63 g ai/ha) | crop damage rating CORN ([12]; rate 250 g ai/ha)
30: crop damage rating SOY ([11]; rate 63 g ai/ha) | crop damage rating RICE ([13]; rate 250 g ai/ha) | phytotoxicity rating DIGSA ([17]; rate 63 g ai/ha) | phytotoxicity rating SORHA ([19]; rate 63 g ai/ha) | phytotoxicity rating SETVI ([20]; rate 250 g ai/ha) | RICE crop damage rating ([23]; Rate 125 g al/ha)
80: DIGSA phytotoxicity rating ([5]; Rate 250 g al/ha) | SETVI phytotoxicity rating ([8]; Rate 125 g al/ha)
95: phytotoxicity rating IPOHE ([15]; rate 250 g ai/ha) | phytotoxicity rating CHEAL ([18]; rate 63 g ai/ha)
40: crop damage rating RICE ([13]; rate 63 g ai/ha) | phytotoxicity rating ECHCG ([14]; rate 250 g ai/ha)

Cn1nc(-c2cc(Oc3ncccc3[N+](=O)[O-])c(Cl)cc2F)c(Cl)c1C(F)(F)F [Compound 1-1]
60: phytotoxicity rating ABUTH ([9]; 500 g ai/ha) | CORN crop damage rating (0-100) ([12]; 500 g al/ha)
10: phytotoxicity rating IPOHE ([3]; 500 g ai/ha) | crop damage rating SOY ([24]; 500 g ai/ha)
90: phytotoxicity rating DIGSA ([5]; 500 g ai/ha) | RICE crop damage rating (0-100) ([13]; 500 g al/ha) | SORHA phytotoxicity rating (0-100) ([19]; 500 g al/ha)
95: DIGSA phytotoxicity rating (0-100) ([17]; 500 g al/ha)
20: phytotoxicity rating CASOB ([2]; 500 g ai/ha) | crop damage rating CORN ([22]; 500 g ai/ha) | crop damage rating RICE ([23]; 500 g ai/ha)
100: phytotoxicity rating AMARE ([4]; 500 g ai/ha) | phytotoxicity rating CHEAL ([6]; 500 g ai/ha) | phytotoxicity rating SETVI ([8]; 500 g ai/ha) | SOY crop damage rating (0-100) ([11]; 500 g al/ha) | ECHCG phytotoxicity rating (0-100) ([14]; 500 g al/ha) | IPOHE phytotoxicity rating (0-100) ([15]; 500 g al/ha) | AMARE phytotoxicity rating (0-100) ([16]; 500 g al/ha) | CHEAL phytotoxicity rating (0-100) ([18]; 500 g al/ha) | SETVI phytotoxicity rating (0-100) ([20]; 500 g al/ha) | ABUTH phytotoxicity rating (0-100) ([21]; 500 g al/ha) | AMBEL phytotoxicity rating (0-100) ([25]; 500 g al/ha)
70: phytotoxicity rating SORHA ([7]; 500 g ai/ha)
50: phytotoxicity rating ECHCG ([1]; 500 g ai/ha) | phytotoxicity rating AMBEL ([10]; 500 g ai/ha)
